Values of other authors as cited in PMC9239115 (Amino acids, 2017).

Legend:
[1] = system: C6 glioma cell lines; settings: up to 200 μM; ref Pes 2013
[2] = degraded in the circulation by ACE; ref Rodgers et al. 2006

Half-life in the circulation [2] [min]	SMILES	Toxicity on C6 glioma cell lines [1]
	NC[C@H]1C[C@@H](C(=O)O)C1 [ACCA, cis-3-(Aminomethyl)cyclobutanecarboxylic acid]	did not show any toxicity
29	CC[C@H](C)[C@H](NC(=O)[C@H](Cc1ccc(O)cc1)NC(=O)[C@@H](NC(=O)[C@H](CCCNC(=N)N)NC(=O)[C@@H](N)CC(=O)O)C(C)C)C(=O)N[C@@H](Cc1c[nH]cn1)C(=O)N1CCC[C@H]1C(=O)O [Ang-(1–7), Angiotensin-(1–7)]	
